Data published in patent US20070087975A1, “Compound useful for the prevention and treatment of left ventricular hypertrophy in dialysed patients” (SIGMA-TAU INDUSTRIE FARMACEUTICHE RIUNITE SPA, priority 2005, published 2007).

How the values were obtained:
[1] = tested on: left ventricular (LV) function; conditions: 58 patients with primary glomerulonephritis and moderate chronic renal failure; cited from earlier work
[2] = tested on: decompensated eccentric hypertrophy produced by myocardial infarction; conditions: rats without renal damages; similar to ACE inhibition; cited from earlier work
[3] = tested on: left ventricular hypertrophy (LVH) in ESRD dialysed patients; assay: Clinical trial of propionyl L-carnitine in ESRD patients on dialysis (multicentre, randomized, double-blind, placebo-controlled, echocardiography); type: in vivo, human; conditions: 26 weeks
Description: A clinical trial (multicentre, parallel, randomized, double-blind, dose- ranging placebo-controlled study in 300 patients) useful for evaluating both preventive and/or curative effect of the treatment with propionyl L-carnitine (3 and 6 mg/kg given intravenously three times a week at the end of the hemodyalisis session for 26 weeks) has been done.
1) male or female out-patients aged >18 years, suffering from ESRD on bicarbonate dialysis three times a week;
2) patients who have reached a certain degree of dialytic stability (at least since six months on dialysis), so that the variability due to the progressive patient adaptation of the therapeutic treatment is controlled, presenting no clinical signs of hydric overload at the end of dialysis;
3) patients showing a degree of cardiac deterioration defined as inter-ventricular septum and left ventricular wall thickness ≧11 mm;
4) patients with left ventricular ejection fraction >40%;
During the whole Randomised Treatment Period, all drugs considered indispensable for the treatment of the disease under study could be administrated providing that they were administered for at least three months prior to patient's enrollment, and that the dosage of those drugs remained stable throughout the whole treatment period. […]

SMILES | LV ejection fraction, early and late transmitral flow velocities and early to late LV inflow velocities ratio [1] | magnitude of decompensated eccentric hypertrophy produced by myocardial infarction [2] | effect on the signs of LVH, signs (a)-(c): septum and posterior wall thickness, end-systolic and end-diastolic LV size and volume, LV ejection fraction ([3]; 3 and 6 mg/kg i.v. three times a week at end of hemodialysis session, preliminary ANOVA analysis) | progression of the signs of LVH, points (a)-(c), in the treated group respect to its base line ([3]; T26 vs T0, 3 and 6 mg/kg i.v. three times a week, control group signs worsened)
C[C@H](CS)C(=O)N1CCC[C@H]1C(=O)O [captopril] | not significantly affected | – | – | –
CCC(=O)O[C@H](CC(=O)[O-])C[N+](C)(C)C [propionyl L-carnitine] | – | reduces the magnitude of decompensated eccentric hypertrophy | useful for treating the signs of LVH | able to reduce the progression of the signs of LVH
CCOC(=O)[C@H](CCc1ccccc1)N[C@@H](C)C(=O)N1CCC[C@H]1C(=O)O [enalapril] | not significantly affected | – | – | –
